Assay results published in ChEMBL document CHEMBL4308904 (Bioorg Med Chem, 2019).
Values belong to the compound of their own block, whether it stands above or below them. Activity calls are given as the source filed them. No cut-off for these calls is given here.

Tests used:
[1] = target: T1, Lysine-specific histone demethylase 1A (Homo sapiens, UniProt O60341); experiment: Inhibition of LSD1 (unknown origin)
[2] = target: T1, Lysine-specific histone demethylase 1A
Description: Inhibition of LSD1 (unknown origin) by fluorescence assay

[3] = system: MDA-MB-231; experiment: Induction of apoptosis in human MDA-MB-231 cells transfected with LSD1 siRNA assessed as increase in cleaved caspase-7 level at 8 uM after 24 hrs by Western blot analysis; type: functional, cell-based
[4] = system: MDA-MB-231; experiment: Antiproliferative activity against human MDA-MB-231 cells transfected with LSD1 siRNA assessed as reduction in EdU incorporation at 8 uM after 24 hrs by Hoechst 33342 staining-based confocal laser scanning microscopic analysis; type: functional, cell-based
[5] = system: MDA-MB-231; experiment: Induction of apoptosis in human MDA-MB-231 cells transfected with LSD1 siRNA assessed as chromatinorrhexis at 8 uM after 24 hrs by Hoechst 33342 staining-based confocal laser scanning microscopic analysis; type: functional, cell-based
[6] = system: MDA-MB-231; experiment: Induction of apoptosis in human MDA-MB-231 cells transfected with LSD1 siRNA assessed as increase in BAX/Bcl-2 protein ratio at 8 uM after 24 hrs by Western blot analysis; type: functional, cell-based
[7] = system: MDA-MB-231; experiment: Induction of apoptosis in human MDA-MB-231 cells transfected with LSD1 siRNA assessed as loss of mitochondrial membrane potential at 8 uM after 24 hrs by JC-1 staining-based flow cytometric analysis; type: functional, cell-based
[8] = target: T1, Lysine-specific histone demethylase 1A; experiment: Inhibition of LSD1 in human MDA-MB-231 cells assessed as increase in H3K4me1 methylation by Western blot analysis; type: cell-based
[9] = target: Lysine-specific demethylase 5A (Homo sapiens) (UniProt P29375); experiment: Inhibition of JARID1 in human MDA-MB-231 cells assessed as effect on H3K4me3 methylation by Western blot analysis; type: cell-based
Lysine-specific demethylase 5A (Homo sapiens), sequence (P29375 whole entry): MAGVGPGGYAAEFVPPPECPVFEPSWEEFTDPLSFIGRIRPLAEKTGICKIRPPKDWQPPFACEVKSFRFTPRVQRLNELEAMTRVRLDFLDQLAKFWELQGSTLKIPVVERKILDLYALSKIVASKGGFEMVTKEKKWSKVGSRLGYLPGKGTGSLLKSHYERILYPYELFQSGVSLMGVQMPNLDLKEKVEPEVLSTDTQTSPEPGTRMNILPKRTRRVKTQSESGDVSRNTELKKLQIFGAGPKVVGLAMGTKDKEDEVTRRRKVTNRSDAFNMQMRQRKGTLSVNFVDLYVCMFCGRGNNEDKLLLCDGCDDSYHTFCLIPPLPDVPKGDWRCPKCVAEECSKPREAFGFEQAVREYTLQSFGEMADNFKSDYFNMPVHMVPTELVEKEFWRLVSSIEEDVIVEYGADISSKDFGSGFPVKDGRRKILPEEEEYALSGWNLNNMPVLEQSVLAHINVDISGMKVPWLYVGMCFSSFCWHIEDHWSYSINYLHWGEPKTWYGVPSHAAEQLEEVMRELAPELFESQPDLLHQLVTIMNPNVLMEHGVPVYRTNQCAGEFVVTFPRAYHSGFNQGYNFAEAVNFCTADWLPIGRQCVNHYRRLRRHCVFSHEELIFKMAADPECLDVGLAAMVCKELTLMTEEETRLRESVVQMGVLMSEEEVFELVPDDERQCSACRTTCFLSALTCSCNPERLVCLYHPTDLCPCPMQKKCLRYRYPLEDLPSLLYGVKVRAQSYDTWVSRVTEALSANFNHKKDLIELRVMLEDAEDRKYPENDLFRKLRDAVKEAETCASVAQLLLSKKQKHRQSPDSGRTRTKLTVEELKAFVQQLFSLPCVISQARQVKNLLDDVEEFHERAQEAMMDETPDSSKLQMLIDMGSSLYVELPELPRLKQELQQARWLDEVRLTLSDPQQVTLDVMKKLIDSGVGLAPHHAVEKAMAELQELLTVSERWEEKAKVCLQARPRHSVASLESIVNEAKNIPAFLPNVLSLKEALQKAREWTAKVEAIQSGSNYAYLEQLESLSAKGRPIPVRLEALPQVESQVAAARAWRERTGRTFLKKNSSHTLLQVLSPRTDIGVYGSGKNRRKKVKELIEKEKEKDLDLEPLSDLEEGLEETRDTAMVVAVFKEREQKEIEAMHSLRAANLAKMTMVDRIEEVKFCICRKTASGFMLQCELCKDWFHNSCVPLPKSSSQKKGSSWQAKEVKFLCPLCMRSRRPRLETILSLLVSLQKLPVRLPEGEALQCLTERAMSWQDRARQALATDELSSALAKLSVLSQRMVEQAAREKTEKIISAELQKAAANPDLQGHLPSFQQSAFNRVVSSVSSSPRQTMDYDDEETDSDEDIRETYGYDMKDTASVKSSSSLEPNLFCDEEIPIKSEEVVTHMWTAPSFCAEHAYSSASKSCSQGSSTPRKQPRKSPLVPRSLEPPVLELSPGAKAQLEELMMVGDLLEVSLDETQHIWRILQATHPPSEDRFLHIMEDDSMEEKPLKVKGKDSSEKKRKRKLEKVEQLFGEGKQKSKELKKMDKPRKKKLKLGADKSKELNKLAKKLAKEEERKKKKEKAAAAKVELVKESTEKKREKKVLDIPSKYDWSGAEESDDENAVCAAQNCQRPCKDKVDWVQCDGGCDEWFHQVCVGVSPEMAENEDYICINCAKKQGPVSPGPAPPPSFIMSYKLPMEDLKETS

[10] = system: MDA-MB-231; experiment: Induction of apoptosis in human MDA-MB-231 cells assessed as increase in BAX/Bcl-2 protein ratio at 8 uM after 24 hrs by Western blot analysis; type: functional, cell-based
[11] = system: MDA-MB-231; experiment: Induction of apoptosis in human MDA-MB-231 cells assessed as early apoptosis cells level at 8 uM after 24 hrs by Annexin V-FITC/propidium iodide staining-based flow cytometric analysis relative to control; type: functional
[12] = target: T1, Lysine-specific histone demethylase 1A; experiment: Inhibition of LSD1 in human MDA-MB-231 cells assessed as increase in H3K9me2 methylation by Western blot analysis; type: cell-based
[13] = system: MDA-MB-231; experiment: Induction of apoptosis in human MDA-MB-231 cells assessed as viable cells level at 8 uM after 24 hrs by Annexin V-FITC/propidium iodide staining-based flow cytometric analysis relative to control; type: functional
[14] = system: MDA-MB-231; experiment: Induction of apoptosis in human MDA-MB-231 cells transfected with LSD1 siRNA assessed as increase in cleaved caspase-3 level at 8 uM after 24 hrs by Western blot analysis; type: functional, cell-based
[15] = system: MDA-MB-231; experiment: Inhibition of colony formation in human MDA-MB-231 cells transfected with LSD1 siRNA; type: functional, cell-based
[16] = system: MDA-MB-231; experiment: Antiproliferative activity against human MDA-MB-231 cells transfected with NC siRNA after 24 hrs by MTT assay; type: functional, cell-based
[17] = system: MDA-MB-231; experiment: Induction of apoptosis in human MDA-MB-231 cells transfected with LSD1 siRNA assessed as increase in cleaved caspase-9 level at 8 uM after 24 hrs by Western blot analysis; type: functional, cell-based
[18] = system: MDA-MB-231; experiment: Induction of apoptosis in human MDA-MB-231 cells transfected with LSD1 siRNA assessed as late apoptosis level at 8 uM after 24 hrs by Annexin V-FITC/propidium iodide staining-based flow cytometric analysis relative to control; type: functional
[19] = system: MDA-MB-231; experiment: Effect on LSD1 protein levels in human MDA-MB-231 cells up to 8 uM by Western blot analysis; type: functional, cell-based
[20] = system: MDA-MB-231; experiment: Induction of apoptosis in human MDA-MB-231 cells assessed as loss of mitochondrial membrane potential at 8 uM after 24 hrs by JC-1 staining-based flow cytometric analysis; type: functional, cell-based
[21] = system: MDA-MB-231; experiment: Induction of apoptosis in human MDA-MB-231 cells assessed as necrosis cells level at 8 uM after 24 hrs by Annexin V-FITC/propidium iodide staining-based flow cytometric analysis relative to control; type: functional
[22] = system: MDA-MB-231; experiment: Induction of apoptosis in human MDA-MB-231 cells transfected with LSD1 siRNA assessed as early apoptosis cells level at 8 uM after 24 hrs by Annexin V-FITC/propidium iodide staining-based flow cytometric analysis relative to control; type: functional
[23] = system: MDA-MB-231; experiment: Induction of apoptosis in human MDA-MB-231 cells transfected with LSD1 siRNA assessed as chromatin condensation at 8 uM after 24 hrs by Hoechst 33342 staining-based confocal laser scanning microscopic analysis; type: functional, cell-based
[24] = system: MDA-MB-231; experiment: Induction of apoptosis in human MDA-MB-231 cells assessed as late apoptosis level at 8 uM after 24 hrs by Annexin V-FITC/propidium iodide staining-based flow cytometric analysis relative to control; type: functional
[25] = system: MDA-MB-231; experiment: Antiproliferative activity against human MDA-MB-231 cells transfected with LSD1 siRNA after 24 hrs by MTT assay; type: functional, cell-based
[26] = target: T1, Lysine-specific histone demethylase 1A; experiment: Inhibition of LSD1 in human MDA-MB-231 cells assessed as increase in H3K4me2 methylation by Western blot analysis; type: cell-based
[27] = system: MDA-MB-231; experiment: Induction of apoptosis in human MDA-MB-231 cells transfected with LSD1 siRNA assessed as viable cells level at 8 uM after 24 hrs by Annexin V-FITC/propidium iodide staining-based flow cytometric analysis relative to control; type: functional
[28] = system: MDA-MB-231; experiment: Induction of apoptosis in human MDA-MB-231 cells transfected with LSD1 siRNA assessed as necrosis cells level at 8 uM after 24 hrs by Annexin V-FITC/propidium iodide staining-based flow cytometric analysis relative to control; type: functional
[29] = system: MDA-MB-231; experiment: Induction of apoptosis in human MDA-MB-231 cells transfected with LSD1 siRNA assessed as increase in cleaved PARP level at 8 uM after 24 hrs by Western blot analysis; type: functional, cell-based
[30] = target: T1, Lysine-specific histone demethylase 1A; experiment: Competitive inhibition of LSD1 (unknown origin) using H3Kme2 as substrate by Lineweaver-Burk plot analysis
[31] = system: MDA-MB-231; experiment: Antiproliferative activity against human MDA-MB-231 cells assessed as reduction in EdU incorporation at 8 uM after 24 hrs by Hoechst 33342 staining-based confocal laser scanning microscopic analysis; type: functional, cell-based

IC50 [1]: 2.98 µM
SMILES: COc1c(O[C@@H]2O[C@H](C(=O)O)[C@@H](O)[C@H](O)[C@H]2O)cc(O)c2c(=O)cc(-c3ccccc3)oc12

IC50 [1]: 3.55 µM
SMILES: O=C(O)[C@H]1O[C@@H](Oc2cc3oc(-c4ccccc4)cc(=O)c3c(O)c2O)[C@H](O)[C@@H](O)[C@@H]1O [BAICALIN]

IC50 [2]: 21.8 µM
SMILES: COc1ccc(-c2cc(=O)c3c(O)cc(O[C@@H]4O[C@H](CO)[C@@H](O)[C@H](O)[C@H]4O)cc3o2)cc1O

IC50 [2]: 64.5 µM
SMILES: COc1ccc(-c2oc3c(CC=C(C)C)c(O)cc(O)c3c(=O)c2O)cc1 [ICARITIN]

IC50 [2]: 2.16 µM
SMILES: C[C@@H]1O[C@@H](OC[C@H]2O[C@@H](Oc3c(-c4ccc(O)c(O)c4)oc4cc(O)cc(O)c4c3=O)[C@H](O)[C@@H](O)[C@@H]2O)[C@H](O)[C@H](O)[C@H]1O [RUTIN]

IC50 [2]: 78.8 µM
SMILES: COc1ccc([C@@H]2CC(=O)c3c(O)cc(O)cc3O2)cc1O [HESPERETIN]

SMILES: COc1ccc([C@@H]2CC(=O)c3c(O)cc(O[C@@H]4O[C@H](CO[C@@H]5O[C@@H](C)[C@H](O)[C@@H](O)[C@H]5O)[C@@H](O)[C@H](O)[C@H]4O)cc3O2)cc1O [HESPERIDIN]
IC50 [2]: 19.2 µM

IC50 [2]: 0.95 µM
inhibition [8]: Active
inhibition [9]: inactive
inhibition [12]: Active
inhibition [26]: Active
Ki [30]: 1 µM
SMILES: O=c1c(O[C@@H]2O[C@H](CO)[C@@H](O)[C@H](O)[C@H]2O)c(-c2ccc(O)c(O)c2)oc2cc(O)cc(O)c12 [ISOQUERCETIN]
Activity [3]: Active
Activity [4]: Active
Activity [5]: Active
Activity [6]: Active
Activity [7]: Active
Activity [10]: Active
Activity [11]: 1%
Activity [13]: 82.6%
Activity [14]: Active
inhibition [15]: Active
Activity [16]: Active
Activity [17]: Active
Activity [18]: 38.9%
Activity [19]: inactive
Activity [20]: Active
Activity [21]: 2.6%
Activity [22]: 3.5%
Activity [23]: Active
Activity [24]: 10.7%
Activity [25]: Active
Activity [27]: 56.1%
Activity [28]: 1.5%
Activity [29]: Active
Activity [31]: Active

SMILES: O=c1c(O)c(-c2ccc(O)c(O)c2)oc2cc(O)cc(O)c12 [QUERCETIN]
IC50 [2]: 1.26 µM

IC50 [2]: 16.7 µM
SMILES: COc1ccc(-c2oc3c(CC=C(C)C)c(O)cc(O)c3c(=O)c2O[C@@H]2O[C@@H](C)[C@H](O)[C@@H](O)[C@H]2O)cc1

IC50 [1]: 12.5 µM
SMILES: O=c1cc(-c2ccccc2)oc2cc(O)c(O)c(O)c12 [BAICALEIN]

IC50 [2]: 4.74 µM
SMILES: COc1ccc([C@@H]2CC(=O)c3c(O)cc(O[C@@H]4O[C@H](CO)[C@@H](O)[C@H](O)[C@H]4O)cc3O2)cc1O
